Inconclusive results and toxic doses are left out. No stated cut-off is given here; in the data, active means T/C of 150% or more; inactive means T/C below 125%.
Test system: L1210 leukemia ip in BDF1 mice, survival T/C
Test: NCI In Vivo Anticancer Drug Screen. Data for tumor model L1210 Leukemia (intraperitoneal) in B6D2F1 (BDF1) mice
Conditions: endpoint: mean survival time, higher = longer survival
Summary of the method: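 Transplanted-tumor mice were given test agent; controls received vehicle only. Survival readings from the two groups were divided (treated over control).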

[1] = dose: 100.0 mg/kg/injection, schedule: Q04DX002 (ip), vehicle: Klucel (hydroxypropylcellulose) (HPC)
[2] = dose: 200.0 mg/kg/injection, schedule: Q04DX002 (ip), vehicle: Klucel (hydroxypropylcellulose) (HPC)
[3] = dose: 400.0 mg/kg/injection, schedule: Q04DX002 (ip), vehicle: Klucel (hydroxypropylcellulose) (HPC)
[4] = dose: 100.0 mg/kg/injection, schedule: Q01DX009 (ip), vehicle: Klucel (hydroxypropylcellulose) (HPC)
[5] = dose: 100.0 mg/kg/injection, schedule: Q04DX003 (ip), vehicle: Klucel (hydroxypropylcellulose) (HPC)
[6] = dose: 200.0 mg/kg/injection, schedule: Q01DX009 (ip), vehicle: Klucel (hydroxypropylcellulose) (HPC)
[7] = dose: 200.0 mg/kg/injection, schedule: Q04DX003 (ip), vehicle: Klucel (hydroxypropylcellulose) (HPC)
[8] = dose: 400.0 mg/kg/injection, schedule: Q01DX009 (ip), vehicle: Klucel (hydroxypropylcellulose) (HPC)
[9] = dose: 400.0 mg/kg/injection, schedule: Q04DX003 (ip), vehicle: Klucel (hydroxypropylcellulose) (HPC)

Measured: T/C

COc1ccc(C(C)(C)CC(C)(C)C)cc1
inactive: dose: 75.0 mg/kg/injection, schedule: Q01DX009 (ip), vehicle: Klucel (hydroxypropylcellulose) (HPC) 111 % of control | [1] 108 % of control | dose: 150.0 mg/kg/injection, schedule: Q01DX009 (ip), vehicle: Klucel (hydroxypropylcellulose) (HPC) 100 % of control | [2] 118 % of control | dose: 300.0 mg/kg/injection, schedule: Q01DX009 (ip), vehicle: Klucel (hydroxypropylcellulose) (HPC) 91 % of control | [3] 101 % of control

CCCCCCCCCC(=O)Nc1ccc(C)cc1C
inactive: [1] 97 % of control | [2] 101 % of control | [3] 90 % of control

O=C(/C=C\c1ccccc1Cl)c1ccccc1
inactive: dose: 100.0 mg/kg/injection, schedule: Q04DX002 (ip), vehicle: gum acacia 98 % of control | dose: 200.0 mg/kg/injection, schedule: Q04DX002 (ip), vehicle: gum acacia 95 % of control | dose: 400.0 mg/kg/injection, schedule: Q04DX002 (ip), vehicle: gum acacia 113 % of control

CC(N)C(=O)NC(CC(=O)O)C(=O)O (stereo not drawn)
inactive: dose: 25.0 mg/kg/injection, schedule: Q04DX002 (ip), vehicle: saline 98 % of control | dose: 50.0 mg/kg/injection, schedule: Q04DX002 (ip), vehicle: saline 94 % of control | dose: 100.0 mg/kg/injection, schedule: Q04DX002 (ip), vehicle: saline 94 % of control

CCOC(=O)N1Cc2cc3ccccc3nc2C1CC(=O)O (stereo not drawn)
inactive: [4] 104 % of control | [5] 105 % of control | [6] 98 % of control | [7] 88 % of control | [8] 102 % of control | [9] 96 % of control

Cc1cc2c3ccccc3nc(C(F)(F)F)n2n1
inactive: dose: 100.0 mg/kg/injection, schedule: Q01DX009 (ip), vehicle: saline with Tween-80 97 % of control | dose: 200.0 mg/kg/injection, schedule: Q01DX009 (ip), vehicle: saline with Tween-80 103 % of control | dose: 400.0 mg/kg/injection, schedule: Q01DX009 (ip), vehicle: saline with Tween-80 95 % of control

CCCCCCCCCCNC(C1=C(O)c2ccccc2C(=O)C1=O)c1ccccc1 (stereo not drawn)
inactive: dose: 25.0 mg/kg/injection, schedule: Q01DX001 (ip), vehicle: saline with Tween-80 89 % of control | dose: 100.0 mg/kg/injection, schedule: Q01DX001 (ip), vehicle: saline with Tween-80 89 % of control | dose: 400.0 mg/kg/injection, schedule: Q01DX001 (ip), vehicle: saline with Tween-80 86 % of control

CC(C)(C)CC(C)(C)NCc1ccccc1
inactive: dose: 25.0 mg/kg/injection, schedule: Q04DX003 (ip), vehicle: saline with Tween-80 103 % of control | dose: 50.0 mg/kg/injection, schedule: Q04DX003 (ip), vehicle: saline with Tween-80 92 % of control | dose: 100.0 mg/kg/injection, schedule: Q04DX003 (ip), vehicle: saline with Tween-80 103 % of control

C[C@]12CCC(=O)C=C1[C@@H](F)C[C@@H]1[C@@H]2[C@@H](O)C[C@@]2(C)[C@H]1CC[C@]2(O)C(=O)CO
inactive: dose: 25.0 mg/kg/injection, schedule: Q01DX015 (ip), vehicle: carboxymethylcellulose (CMC) 106 % of control | dose: 50.0 mg/kg/injection, schedule: Q01DX015 (ip), vehicle: carboxymethylcellulose (CMC) 96 % of control | dose: 100.0 mg/kg/injection, schedule: Q01DX001 (sc), vehicle: steriod suspending solution 117 % of control | dose: 100.0 mg/kg/injection, schedule: Q01DX015 (ip), vehicle: carboxymethylcellulose (CMC) 110 % of control | dose: 200.0 mg/kg/injection, schedule: Q01DX001 (sc), vehicle: steriod suspending solution 89 % of control | dose: 200.0 mg/kg/injection, schedule: Q01DX015 (ip), vehicle: carboxymethylcellulose (CMC) 98 % of control | dose: 400.0 mg/kg/injection, schedule: Q01DX001 (sc), vehicle: steriod suspending solution 100 % of control | dose: 400.0 mg/kg/injection, schedule: Q01DX015 (ip), vehicle: carboxymethylcellulose (CMC) 86 % of control | dose: 800.0 mg/kg/injection, schedule: Q01DX001 (sc), vehicle: steriod suspending solution 105 % of control | dose: 800.0 mg/kg/injection, schedule: Q01DX015 (ip), vehicle: saline 102 % of control

CCOC(=O)CC(C)NC1CCCCC1 (stereo not drawn)
inactive: dose: 100.0 mg/kg/injection, schedule: Q01DX Z (ip), vehicle: methylcellulose (MC) 92 % of control | dose: 200.0 mg/kg/injection, schedule: Q01DX Z (ip), vehicle: methylcellulose (MC) 92 % of control

O=C(CC(=O)Nc1ccc(C2=NCCCN2)cc1)Nc1ccc(C2=NCCCN2)cc1
inactive: dose: 6.25 mg/kg/injection, schedule: Q01DX Z (ip), vehicle: water 110 % of control | dose: 12.5 mg/kg/injection, schedule: Q01DX Z (ip), vehicle: water 113 % of control | dose: 25.0 mg/kg/injection, schedule: Q01DX Z (ip), vehicle: water 101 % of control | dose: 50.0 mg/kg/injection, schedule: Q01DX Z (ip), vehicle: water 104 % of control | dose: 62.5 mg/kg/injection, schedule: Q01DX Z (ip), vehicle: water 96 % of control | dose: 125.0 mg/kg/injection, schedule: Q01DX Z (ip), vehicle: water 102 % of control | dose: 250.0 mg/kg/injection, schedule: Q01DX Z (ip), vehicle: water 97 % of control

OC1c2ccccc2C(O)C2C3C=CC(C3)C12 (stereo not drawn)
inactive: dose: 50.0 mg/kg/injection, schedule: Q01DX001 (ip), vehicle: carboxymethylcellulose (CMC) 87 % of control | dose: 100.0 mg/kg/injection, schedule: Q01DX001 (ip), vehicle: carboxymethylcellulose (CMC) 97 % of control | dose: 200.0 mg/kg/injection, schedule: Q01DX001 (ip), vehicle: carboxymethylcellulose (CMC) 100 % of control | dose: 400.0 mg/kg/injection, schedule: Q01DX001 (ip), vehicle: carboxymethylcellulose (CMC) 97 % of control

Cc1ccc(C(Br)C2=CC(C)(C)c3ccccc3C2=O)cc1 (stereo not drawn)
inactive: [4] 106 % of control | [5] 106 % of control | [6] 101 % of control | [7] 104 % of control | [8] 98 % of control | [9] 104 % of control

O=C1c2nc3ccccc3nc2C(=O)N1O
inactive: [4] 107 % of control | [6] 100 % of control

CCOC(=O)C1C(=O)CC(=O)C(C(=O)OCC)C1C1CC=CCC1 (stereo not drawn)
inactive: dose: 100.0 mg/kg/injection, schedule: Q04DX002 (ip), vehicle: saline with Tween-80 91 % of control | dose: 200.0 mg/kg/injection, schedule: Q04DX002 (ip), vehicle: saline with Tween-80 94 % of control | dose: 400.0 mg/kg/injection, schedule: Q04DX002 (ip), vehicle: saline with Tween-80 94 % of control

CCOC(=O)CC(=O)c1ccccc1F
inactive: [4] 97 % of control | [5] 102 % of control | [6] 103 % of control | [7] 103 % of control | [8] 93 % of control | [9] 100 % of control

Cc1ccc2[nH]c(=S)n(-c3cccc(C(F)(F)F)c3)c(=O)c2c1
inactive: [4] 96 % of control | [6] 104 % of control | [8] 100 % of control

Reference: PubChem BioAssay AID248 (DTP/NCI, 2004)
